What was measured:
[1] = molecular target: T1, Recombinant STAT6 protein (STAT6(W123-T658)) (Homo sapiens, UniProt P42226); assay: STAT6 Fluorescence Polarization (FP) Assay; format: binding; conditions: STAT6(W123-T658) 250 nM, probe 5-FAM-ApYKPFQDLI-NH2 2 nM, 45-minute incubation
T1 construct: Recombinant STAT6 protein (STAT6(W123-T658))
T1 sequence (P42226 123-658): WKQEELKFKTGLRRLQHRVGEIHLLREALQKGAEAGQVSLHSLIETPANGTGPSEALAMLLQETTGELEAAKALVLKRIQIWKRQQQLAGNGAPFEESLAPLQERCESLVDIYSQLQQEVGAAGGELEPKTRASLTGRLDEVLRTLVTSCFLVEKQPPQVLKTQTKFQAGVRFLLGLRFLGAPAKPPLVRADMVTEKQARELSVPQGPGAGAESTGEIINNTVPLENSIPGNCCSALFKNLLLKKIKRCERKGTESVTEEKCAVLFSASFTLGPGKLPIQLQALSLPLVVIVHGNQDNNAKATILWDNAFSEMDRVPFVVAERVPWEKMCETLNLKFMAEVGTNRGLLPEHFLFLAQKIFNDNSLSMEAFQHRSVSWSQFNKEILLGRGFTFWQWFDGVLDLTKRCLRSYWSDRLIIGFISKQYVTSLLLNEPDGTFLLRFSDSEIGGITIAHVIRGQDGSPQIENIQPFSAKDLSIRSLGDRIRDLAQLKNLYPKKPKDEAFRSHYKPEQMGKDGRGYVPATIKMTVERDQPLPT
In short: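 Displacement of a fluorescent phosphotyrosine peptide (5-FAM-ApYKPFQDLI-NH2, 2 nM) from STAT6(W123-T658) (250 nM), 1% DMSO, pH 7.4 HEPES buffer. After 45 min at room temperature, polarization (mP) was plotted versus log compound concentration and fitted by nonlinear regression to give IC50.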

[2] = molecular target: T2, Recombinant STAT3 protein (STAT3(G127-I722)) (Homo sapiens, UniProt P40763); assay: STAT3 Fluorescence Polarization (FP) Assay; format: binding; conditions: STAT3(G127-I722) 25 nM, probe 5-FAM-GpYLPQTV-NH2 2 nM, 45-minute incubation
T2 construct: Recombinant STAT3 protein (STAT3(G127-I722))
In short: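 Fluorescence polarization after a 45-min room-temperature incubation measured compound displacement of a 2 nM fluorescein-labelled phosphotyrosine peptide (5-FAM-GpYLPQTV-NH2) from 25 nM recombinant STAT3(G127-I722). Buffer was 10 mM HEPES pH 7.4 with 1% DMSO final. IC50s were fitted by nonlinear regression of mP against log concentration.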

T2 sequence (P40763 127-722): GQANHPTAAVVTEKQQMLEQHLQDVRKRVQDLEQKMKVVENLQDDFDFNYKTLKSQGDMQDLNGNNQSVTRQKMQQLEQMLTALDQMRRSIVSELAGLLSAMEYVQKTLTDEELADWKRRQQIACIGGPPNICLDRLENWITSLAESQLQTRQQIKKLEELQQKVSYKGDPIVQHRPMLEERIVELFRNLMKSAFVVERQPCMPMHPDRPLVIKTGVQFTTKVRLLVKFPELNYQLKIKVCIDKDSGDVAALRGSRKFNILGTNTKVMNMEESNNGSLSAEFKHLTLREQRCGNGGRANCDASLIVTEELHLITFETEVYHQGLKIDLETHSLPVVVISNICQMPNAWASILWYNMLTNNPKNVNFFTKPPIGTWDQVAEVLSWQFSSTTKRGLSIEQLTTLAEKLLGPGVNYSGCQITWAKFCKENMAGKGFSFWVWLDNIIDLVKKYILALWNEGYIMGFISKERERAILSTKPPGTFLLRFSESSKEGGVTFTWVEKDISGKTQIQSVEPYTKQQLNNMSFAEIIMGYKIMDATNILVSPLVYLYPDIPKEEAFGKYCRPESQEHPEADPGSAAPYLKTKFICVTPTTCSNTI

SMILES | IC50 [1] | IC50 [2]
Cc1ccc2onc(C(=O)N3CC[C@H]4CC[C@@H](C(=O)N5C[C@@H](C)O[C@@H](C)C5)N4C(=O)[C@@H](NC(=O)c4ccc5ccc(C(F)P(=O)(O)O)cc5c4)C3)c2c1 (stereo partly drawn) [Compound 397, ((7-(((5S,8S,10aR)-8-((2S,6R)-2,6-dimethylmorpholine-4-carbonyl)-3-(5-methylbenzo[d]isoxazole-3-carbonyl)-6-oxodecahydropyrrolo [1,2-a][1,5]diazocin-5-yl)carbamoyl)naphthalen-2-yl)fluoromethyl)phosphonic acid] | ≤ 300 nM | > 10000 nM
CNC(=O)[C@@H]1CC[C@@H]2CCN(C(C)=O)C[C@H](NC(=O)c3cc4cc(C(F)(F)P(=O)(O)O)ccc4[nH]3)C(=O)N21 [Compound 36, ((2-(((5S,8S,10aR)-3-acetyl-8-(methylcarbamoyl)-6-oxodecahydropyrrolo[1,2-a][1,5]diazocin-5-yl)carbamoyl)-1H-indol-5-yl)difluoromethyl)phosphonic acid] | 300 to 3000 nM | 1000 to 10000 nM
CC(=O)N1CC[C@H]2CC[C@@H](C(=O)N3C[C@@H](C#N)[C@H](c4cc[nH]c(=O)c4)C3)N2C(=O)[C@@H](NC(=O)c2ccc3ccc(C(F)(F)P(=O)(O)O)cc3c2)C1 (single isomer, unassigned) [Compound 39, ((7-(((5S,8S,10aR)-3-acetyl-8-((3S,4R or 3R,4S)-3-cyano-4-(2-oxo-1,2-dihydropyridin-4-yl)pyrrolidine-1-carbonyl)-6-oxodecahydropyrrolo[1,2-a][1,5]diazocin-5-yl)carbamoyl)naphthalen-2-yl)difluoromethyl)phosphonic acid] | ≤ 300 nM | 1000 to 10000 nM
CCN1CC[C@H](NC(=O)c2cc3cc(C(F)(F)P(=O)(O)O)ccc3s2)C(=O)N2[C@H](CC[C@H]2C(=O)N2CC(c3cccnc3)C2)C1 [Compound 226, ((2-(((5S,8S,10aR)-2-ethyl-6-oxo-8-(3-(pyridin-3-yl)azetidine-1-carbonyl)decahydropyrrolo[1,2-a][1,4]diazocin-5-yl)carbamoyl)benzo[b]thiophen-5-yl)difluoromethyl)phosphonic acid] | 300 to 3000 nM | ≤ 100 nM
O=C(N[C@H]1CCNC[C@H]2CC[C@@H](C(=O)N3CC(c4cccnc4)C3)N2C1=O)c1cc2cc(C(F)(F)P(=O)(O)O)ccc2s1 [Compound 212, (difluoro(2-(((5S,8S,10aR)-6-oxo-8-(3-(pyridin-3-yl)azetidine-1-carbonyl)decahydropyrrolo[1,2-a][1,4]diazocin-5-yl)carbamoyl)benzo[b]thiophen-5-yl)methyl)phosphonic acid] | 3000 to 30000 nM | 1000 to 10000 nM
CCC(=O)NCCCN(C)C(=O)[C@@H]1CC[C@@H]2CCN(C(C)=O)C[C@H](NC(=O)/C=C/c3ccc(C(F)(F)P(=O)(O)O)cc3)C(=O)N21 [Compound 26, ((4-((E)-3-(((5S,8S,10aR)-3-acetyl-8-(methyl(3-propionamidopropyl)carbamoyl)-6-oxodecahydropyrrolo[1,2-a][1,5]diazocin-5-yl)amino)-3-oxoprop-1-en-1-yl)phenyl)difluoromethyl)phosphonic acid] | > 30000 nM | > 10000 nM
N#Cc1ccccc1-c1ccc(NC(=O)[C@@H]2CC[C@@H]3CCN(C(=O)Cc4ccccc4)C[C@H](NC(=O)c4cc5cc(C(F)(F)P(=O)(O)O)ccc5[nH]4)C(=O)N32)cc1 [Compound 266, ((2-(((5S,8S,10aR)-8-((2′-cyano-[1,1′-biphenyl]-4-yl)carbamoyl)-6-oxo-3-(2-phenylacetyl)decahydropyrrolo[1,2-a][1,5]diazocin-5-yl)carbamoyl)-1H-indol-5-yl)difluoromethyl)phosphonic acid] | ≤ 300 nM | 100 to 1000 nM
CC(=O)N1CC[C@H]2CC[C@@H](C(=O)Nc3ccc4[nH]ncc4c3)N2C(=O)[C@@H](NC(=O)c2cc3cc(C(F)(F)P(=O)(O)O)ccc3s2)C1 [Compound 175, ((2-(((5S,8S,10aR)-8-((1H-indazol-5-yl)carbamoyl)-3-acetyl-6-oxodecahydropyrrolo[1,2-a][1,5]diazocin-5-yl)carbamoyl)benzo[b]thiophen-5-yl)difluoromethyl)phosphonic acid] | 300 to 3000 nM | 100 to 1000 nM
O=C(N[C@H]1CN(C(=O)c2ncn3ccccc23)CC[C@H]2CC[C@@H](C(=O)N3CCOCC3)N2C1=O)c1ccc2ccc(C(F)P(=O)(O)O)cc2c1 (stereo partly drawn) [Compound 357, (fluoro(7-(((5S,8S,10aR)-3-(imidazo[1,5-a]pyridine-1-carbonyl)-8-(morpholine-4-carbonyl)-6-oxodecahydro-pyrrolo[1,2-a][1,5]diazocin-5-yl)carbamoyl)naphthalen-2-yl)methyl)phosphonic acid] | 300 to 3000 nM | > 10000 nM
Cc1ccc2onc(C(=O)N3CC[C@H]4CC[C@@H](C(=O)N5C[C@@H](c6ccn(C)c(=O)c6)CC56CC6)N4C(=O)[C@@H](NC(=O)c4ccc5ccc(C(F)(F)P(=O)(O)O)cc5c4)C3)c2c1 [Compound 383, (difluoro(7-(((5S,8S, 10aR)-8-((R)-6-(1-methyl-2-oxo-1,2-dihydropyridin-4-yl)-4-azaspiro[2.4]heptane-4-carbonyl)-3-(5-methylbenzo[d]isoxazole-3-carbonyl)-6-oxodecahydropyrrolo [1,2-a][1,5]diazocin-5-yl)carbamoyl)naphthalen-2-yl)methyl)phosphonic acid] | ≤ 300 nM | 1000 to 10000 nM
CC(=O)N1CC[C@H]2CC[C@@H](C(=O)N3CCC[C@@H]3Cc3ccccc3)N2C(=O)[C@@H](NC(=O)c2cc3cc(C(F)(F)P(=O)(O)O)ccc3[nH]2)C1 [Compound 129, ((2-(((5S,8S,10aR)-3-acetyl-8-((R)-2-benzylpyrrolidine-1-carbonyl)-6-oxodecahydropyrrolo[1,2-a][1,5]diazocin-5-yl)carbamoyl)-1H-indol-5-yl)difluoromethyl)phosphonic acid] | 300 to 3000 nM | 1000 to 10000 nM
O=C(N[C@H]1CCN(C(c2ccccc2)c2ccccc2)C[C@H]2CC[C@@H](C(=O)N3CC(c4cccnc4)C3)N2C1=O)c1cc2cc(C(F)(F)P(=O)(O)O)ccc2s1 [Compound 210, ((2-(((5S,8S,10aR)-2-benzhydryl-6-oxo-8-(3-(pyridin-3-yl)azetidine-1-carbonyl)decahydropyrrolo[1,2-a][1,4]diazocin-5-yl)carbamoyl)benzo[b]thiophen-5-yl)difluoromethyl)phosphonic acid] | 3000 to 30000 nM | ≤ 100 nM
Cc1ccc2onc(C(=O)N3CC[C@H]4CC[C@@H](C(=O)N5C[C@@H](c6ccn(C)c(=O)c6)CC56CC6)N4C(=O)[C@@H](NC(=O)c4ccc5ccc([C@H](F)P(=O)(O)O)cc5c4)C3)c2c1 [Compound 387, ((R)-fluoro(7-(((5S, 8S,10aR)-8-((R)-6-(1-methyl-2-oxo-1,2-dihydropyridin-4-yl)-4-azaspiro[2.4]heptane-4-carbonyl)-3-(5-methylbenzo[d]isoxazole-3-carbonyl)-6-oxodecahydro-pyrrolo[1,2-a][1,5]diazocin-5-yl)carbamoyl)naphthalen-2-yl)methyl) phosphonic acid] | ≤ 300 nM | > 10000 nM
CC(=O)N1CC[C@H]2CC[C@@H](C(=O)N3CCCC3Cc3ccc(F)cc3)N2C(=O)[C@@H](NC(=O)c2cc3cc(C(F)(F)P(=O)(O)O)ccc3[nH]2)C1 (stereo partly drawn) [Compound 130, ((2-(((5S,8S,10aR)-3-acetyl-8-(2-(4-fluorobenzyl)pyrrolidine-1-carbonyl)-6-oxodecahydropyrrolo[1,2-a][1,5]diazocin-5-yl)carbamoyl)-1H-indol-5-yl)difluoromethyl)phosphonic acid] | 300 to 3000 nM | 1000 to 10000 nM
CN1CCN(c2ccccc2CN2CC[C@H]3CC[C@@H](C(=O)N4CC(c5cccnc5)C4)N3C(=O)[C@@H](NC(=O)c3cc4cc(C(F)(F)P(=O)(O)O)ccc4s3)C2)CC1 [Compound 274, (difluoro(2-(((5S,8S,10aR)-3-(2-(4-methylpiperazin-1-yl)benzyl)-6-oxo-8-(3-(pyridin-3-yl)azetidine-1-carbonyl)decahydropyrrolo[1,2-a][1,5]diazocin-5-yl)carbamoyl)benzo[b]thiophen-5-yl)methyl)phosphonic acid] | 3000 to 30000 nM | ≤ 100 nM
CC(=O)N1CC[C@H]2CC[C@@H](C(=O)N[C@H]3CN(C(C)=O)C[C@@H]3O)N2C(=O)[C@@H](NC(=O)c2cc3cc(C(F)(F)P(=O)(O)O)ccc3s2)C1 [Compound 182, ((2-(((5S,8S,10aR)-3-acetyl-8-(((3S,4S)-1-acetyl-4-hydroxypyrrolidin-3-yl)carbamoyl)-6-oxodecahydropyrrolo[1,2-a][1,5]diazocin-5-yl)carbamoyl)benzo[b]thiophen-5-yl)difluoromethyl)phosphonic acid] | 300 to 3000 nM | 100 to 1000 nM

— patent publication US20250179103A1, “6-OXODECAHYDROPYRROLO[1,2-A][1,5]DIAZOCINE AND 6-OXODECAHYDRO-4H-PYRROLO[2,1-D][1,5]THIAZOCINE DERIVATIVES AS STAT3 AND STAT6 MODULATORS FOR THE TREATMENT OF CANCER AND INFLAMMATORY CONDITIONS” (Recludix Pharma, Inc., priority 2022, published 2025)
